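Dose response: 5 concentrations. Exposure: 48 h. Format: 96-well plates. Endpoint: linear interpolation; highest concentration if not reached. TGI is the concentration that stops growth completely.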
How the values were obtained:
Assay in all cases: growth of human tumour cells (NCI), 48 h
T-47D breast = system: T-47D breast
MOLT-4 leukemia = system: MOLT-4 leukemia
SR leukemia = system: SR leukemia
LOX IMVI melanoma = system: LOX IMVI melanoma
HCT-15 colon = system: HCT-15 colon
U251 CNS = system: U251 CNS
MDA-MB-435 = system: MDA-MB-435
NCI-H522 lung = system: NCI-H522 lung
A498 renal = system: A498 renal
DU-145 prostate = system: DU-145 prostate
SF-539 CNS = system: SF-539 CNS
UACC-257 melanoma = system: UACC-257 melanoma
CAKI-1 renal = system: CAKI-1 renal
HS 578T breast = system: HS 578T breast
HCC-2998 colon = system: HCC-2998 colon
HCT-116 colon = system: HCT-116 colon
TK-10 renal = system: TK-10 renal
RXF 393 renal = system: RXF 393 renal
NCI-H460 lung = system: NCI-H460 lung
KM20L2 colon = system: KM20L2 colon

Row | Compound | TGI (T-47D breast) [µM] | TGI (MOLT-4 leukemia) [µM] | TGI (SR leukemia) [µM] | TGI (LOX IMVI melanoma) [µM] | TGI (HCT-15 colon) [µM] | TGI (U251 CNS) [µM] | TGI (MDA-MB-435) [µM] | TGI (NCI-H522 lung) [µM] | TGI (A498 renal) [µM] | TGI (DU-145 prostate) [µM] | TGI (SF-539 CNS) [µM] | TGI (UACC-257 melanoma) [µM] | TGI (CAKI-1 renal) [µM] | TGI (HS 578T breast) [µM] | TGI (HCC-2998 colon) [µM] | TGI (HCT-116 colon) [µM] | TGI (TK-10 renal) [µM] | TGI (RXF 393 renal) [µM] | TGI (NCI-H460 lung) [µM] | TGI (KM20L2 colon) [µM]
1 | CCO/C=N\C1=C(C#N)SC2=N/C(=C\c3ccc(OC)cc3)C(=O)N21 | > 100 | > 100 | > 100 | > 100 | > 100 | > 100 | > 100 | > 100 | > 100 | > 100 | > 100 | > 100 | > 100 | > 100 | > 100 | > 100 | > 100 | > 100 | – | –
2 | Cc1cc(N(CCC#N)CCC#N)ccc1/C=C(\NC(=O)/C=C/c1ccccc1)C(N)=O | – | > 100 | – | > 100 | > 100 | > 100 | – | > 100 | > 100 | – | > 100 | > 100 | > 100 | – | > 100 | > 100 | > 100 | 21 | > 100 | > 100
3 | CCCCCCCCCCCC(=O)OCC(C[As](=O)(O)O)OC(=O)CCCCCCCCCCC (stereo not drawn) | 42.3 | > 41.6 | 51.4 | 18.3 | 25.5 | 2.93 | 9.91 | 4.33 | 17.7 | 35.6 | 32 | 21.9 | 21.7 | 13.3 | 14 | 18.3 | 30.6 | 5.86 | 13.3 | 20
4 | CCOC(=O)CC(C)C1(C(=O)OCC)CCCCC1=O (stereo not drawn) | – | > 100 | 55.4 | > 100 | 50 | > 100 | – | > 100 | > 100 | – | > 100 | > 100 | > 100 | – | > 100 | > 100 | > 100 | > 100 | > 100 | > 100
5 | CCOC(=O)c1cn2c(n1)sc1cc(Cl)ccc12 | > 100 | > 100 | > 100 | > 100 | > 100 | 60.7 | > 100 | > 100 | > 100 | > 100 | 26 | > 100 | > 100 | > 100 | > 100 | 13.6 | > 100 | > 100 | > 100 | –
6 | O=C(c1cccs1)N1CCc2ccccc2C1 | > 100 | > 100 | > 100 | > 100 | > 100 | > 100 | > 100 | > 100 | > 100 | > 100 | > 100 | > 100 | > 100 | > 100 | > 100 | > 100 | > 100 | > 100 | > 100 | –
7 | CCOC(=O)c1c(N2CCOCC2)[nH]c(=O)c(C(c2c(Cl)cccc2Cl)c2c(O)c(C(=O)OCC)c(N3CCOCC3)[nH]c2=O)c1O | 13.2 | 5.51 | 15.9 | 9.08 | 15.6 | 15.8 | 12.1 | 3.72 | 20.9 | 24.6 | 11 | 18.7 | 5.24 | 19.4 | 34 | 8.83 | 14.3 | 4.93 | 45.2 | –
8 | CC1=CCC(O)C=CC(C)C(O)C(C)C=C(C)C(=O)c2c(O)c(C)cc3c2C(=O)C(N)=C(NC(=O)/C=C\C=C/C=CC(C)C(O)CC1=O)C3=O (stereo not drawn) | – | > 100 | – | > 100 | > 100 | > 100 | – | 35.3 | > 100 | – | > 100 | > 100 | > 100 | – | > 100 | 54.4 | > 100 | – | – | > 100
9 | CC(=O)[C@@H](C)C(=O)N1C(=O)OC[C@@]12[C@@H]1CC[C@@H](C1)C2(C)C | > 100 | – | > 100 | > 100 | > 100 | > 100 | > 100 | > 100 | > 100 | > 100 | > 100 | > 100 | > 100 | > 100 | > 100 | > 100 | > 100 | > 100 | > 100 | –
10 | CC(=O)O[C@H]1C(=O)[C@@]2(C)C(C(OC(=O)c3ccccc3)[C@]3(O)CC(OC(=O)C(O)C(NC(=O)c4ccc(C(F)(F)F)cc4)c4ccccc4)C(C)=C1C3(C)C)[C@]1(OC(C)=O)CO[C@@H]1C[C@@H]2O (stereo partly drawn) | – | 7.39 | 4.96 | 6.43 | 13.5 | 2.43 | – | 0.2 | > 37.5 | – | 0.65 | > 37.5 | > 37.5 | – | 0.387 | 0.196 | > 37.5 | – | 0.783 | 0.174
11 | COC(=O)CC1N=C(NC#N)N(CCc2c[nH]c3ccccc23)C1=O (stereo not drawn) | – | > 100 | > 100 | > 100 | > 100 | > 100 | – | – | – | – | > 100 | > 100 | – | – | > 100 | > 100 | > 100 | > 100 | > 100 | > 100
12 | COC(=O)c1cc2c(cc1CC(Cc1ccc3c(c1)CCCC3)C(=O)OC)CCCC2 (stereo not drawn) | > 100 | > 100 | > 100 | > 100 | > 100 | > 100 | > 100 | > 100 | > 100 | > 100 | > 100 | > 100 | > 100 | > 100 | 93.8 | > 100 | > 100 | 72.9 | > 100 | –
13 | CCN(CC)C1CC(O[C@H]2C[C@](O)(C(=O)CO)Cc3c(O)c4c(c(O)c32)C(=O)c2c(OC)cccc2C4=O)OC(C)C1O (stereo partly drawn) | – | 1.17 | – | 0.439 | 3.54 | 1.19 | – | 0.121 | 0.0798 | – | 0.204 | 0.305 | – | – | 0.29 | 1.03 | 2.57 | 0.123 | 0.146 | 0.416
14 | Cc1cc(NS(=O)(=O)c2ccc(Nc3c4ccccc4nc4c(C(=O)N5CCN(CCO)CC5)cccc34)cc2)no1 | – | > 100 | > 100 | > 100 | > 100 | > 100 | – | > 100 | > 100 | – | > 100 | > 100 | > 100 | – | > 100 | > 100 | > 100 | > 100 | > 100 | > 100
15 | Cc1ccc(S(=O)(=O)N/N=C2/CCCOC2)cc1 | > 100 | > 100 | > 100 | > 100 | > 100 | > 100 | > 100 | > 100 | > 100 | > 100 | > 100 | > 100 | > 100 | > 100 | > 100 | > 100 | > 100 | > 100 | > 100 | –
16 | C[Si](C)(C)OC1CC(=O)OC1n1cc(F)c(=O)[nH]c1=O (stereo not drawn) | – | > 100 | 9.38 | 32.5 | > 54 | > 100 | – | > 100 | > 100 | – | > 100 | > 100 | > 100 | – | > 100 | > 69 | > 100 | 98.4 | > 100 | > 100
17 | CN(C)CC1CCCC(CN(C)C)C1OC(=O)c1ccccc1 (stereo not drawn) | – | > 100 | > 100 | > 100 | > 100 | > 100 | – | > 100 | > 100 | – | > 100 | > 100 | > 100 | – | > 100 | > 100 | > 100 | > 100 | > 100 | > 100
18 | O=c1cc(-c2ccc(Oc3ccccc3)cc2)[nH]c2cc3c(cc12)OCO3 | – | > 100 | > 100 | > 100 | > 100 | > 100 | – | – | > 100 | – | > 100 | > 100 | – | – | > 100 | > 100 | > 100 | > 100 | > 100 | > 100
19 | O=C(Nc1ccccc1-c1nc2ccccc2[nH]c1=O)c1ccccc1 | – | > 100 | – | 61.9 | > 100 | 49.6 | – | 46.1 | 51.3 | – | 49.6 | > 100 | 86.8 | – | 33.7 | 40.7 | 31.6 | 43.6 | 47.1 | > 100
20 | CCCCC1Cc2ccccc2-c2nc3ccccc3n21 (stereo not drawn) | 29.4 | 32.9 | 24.3 | 31.6 | 28.4 | 30.9 | 37.1 | 26.5 | 30.6 | 38.1 | 41.4 | 32.2 | 31.9 | 35.4 | 27.8 | 26.6 | 31.5 | 34.5 | 28.8 | –
21 | O=C(CC(=O)n1nc(-c2ccccc2)c(N=Nc2ccc(Cl)cc2)c1-c1ccccc1)Nc1ccc(Cl)cc1 | – | > 100 | > 100 | > 56.9 | > 55.8 | > 100 | – | > 100 | > 100 | – | > 100 | > 100 | > 100 | – | > 100 | > 55.1 | > 100 | – | > 59.4 | > 100
22 | Nc1nc([O-])c2c(n1)[n+](C1OC(CO)C(O)C1O)cn2CCO (stereo not drawn) | – | – | > 100 | > 100 | > 100 | > 100 | – | > 100 | > 100 | – | > 100 | > 100 | > 100 | – | – | > 100 | > 100 | > 100 | > 100 | > 100
23 | CCN1CCN(c2nc3ccccc3c3c2CCOc2ccccc2-3)CC1 | > 69.8 | > 56 | 24.8 | 34.1 | 40.1 | > 79.2 | > 62.7 | > 62.3 | > 57.4 | > 31.6 | > 65.2 | 34.8 | > 55.3 | > 59.2 | 37.3 | > 59 | > 56.9 | > 65.1 | > 73.9 | –
24 | COC1=C(OC)C(=O)C(Cc2c(C)nc3sccn23)=C(C)C1=O | > 100 | – | 38.9 | 36.5 | 41 | 33.1 | 28.6 | 54.9 | 38.3 | 38.6 | 31.2 | 20.7 | 34.9 | 58.5 | 40.3 | 64.2 | 32 | 51.7 | 61.5 | –
25 | O=C(N/N=C\C=C\c1ccc([N+](=O)[O-])o1)C(=O)N/N=C\C=C\c1ccc([N+](=O)[O-])o1 | > 100 | > 100 | > 100 | > 100 | > 100 | > 100 | > 100 | > 100 | > 100 | > 100 | > 100 | > 100 | > 100 | > 100 | > 100 | > 100 | > 100 | > 100 | > 100 | –
